Values after ≈ are worked out from the molar mass of the structure shown. Counter-ions that a name gives are not always drawn.
Legend:
Diplococcus pneumoniae = test: disc-diffusion method, zone of inhibition; assay type: cell-based; conditions: Streptococcus pneumoniae
From the text: (§1) The deoxynarasin antibiotics of this invention are antibacterial agents. For example, the relative microbiological activity of 20-deoxy-epi-17-narasin (free acid) is described in Table IV. The conventional disc-diffusion method was used.

[1] = test system: Staphlococcus aureus 3055; test: disc-diffusion method, zone of inhibition; assay type: cell-based
From the text: as §1

[2] = test system: Staphylococcus aureus 3074 (Penicillin G Resistant); test: disc-diffusion method, zone of inhibition; assay type: cell-based
From the text: as §1

[3] = test system: Staphylococcus aureus 3130 (Methicillin Resistant); test: disc-diffusion method, zone of inhibition; assay type: cell-based
From the text: as §1

[4] = test system: Streptococcus pyogenes (Group A); test: disc-diffusion method, zone of inhibition; assay type: cell-based
From the text: as §1

[5] = test system: Streptococcus sp. (Group D); test: disc-diffusion method, zone of inhibition; assay type: cell-based
From the text: as §1

[6] = test system: Actinomyces israelii W855; test: agar-dilution MIC, anaerobic bacteria; assay type: cell-based; conditions: 24-hour incubation
Description: (§2) In one aspect, the deoxynarasin antibiotics inhibit the growth of anaerobic bacteria. The minimal inhibitory concentrations (MIC) at which 20-deoxy-epi-17-narasin (free acid) inhibits various anaerobic bacteria, determined by standard agar-dilution assay, are summarized in Table V. End points were read after 24-hour incubation period.

Bacteroides fragilis 111 = test: agar-dilution MIC, anaerobic bacteria; assay type: cell-based; conditions: 24-hour incubation
Description: as §2

[7] = test system: Clostridium septicum 1128; test: agar-dilution MIC, anaerobic bacteria; assay type: cell-based; conditions: 24-hour incubation
Description: as §2

[8] = test system: Eubacterium aerofaciens 1235; test: agar-dilution MIC, anaerobic bacteria; assay type: cell-based; conditions: Collinsella aerofaciens, 24-hour incubation
Description: as §2

[9] = test system: Peptococcus asaccharolyticus 1302; test: agar-dilution MIC, anaerobic bacteria; assay type: cell-based; conditions: Peptoniphilus asaccharolyticus, 24-hour incubation
Description: as §2

Peptococcus prevoti 1281 = test: agar-dilution MIC, anaerobic bacteria; assay type: cell-based; conditions: 24-hour incubation
Description: as §2

[10] = test system: Peptostreptococcus anaerobius 1428; test: agar-dilution MIC, anaerobic bacteria; assay type: cell-based; conditions: 24-hour incubation
Description: as §2

[11] = test system: Peptostreptococcus intermedius 1264; test: agar-dilution MIC, anaerobic bacteria; assay type: cell-based; conditions: 24-hour incubation
Description: as §2

[12] = test system: Propionibacterium acnes 79; test: agar-dilution MIC, anaerobic bacteria; assay type: cell-based; conditions: Cutibacterium acnes, 24-hour incubation
Description: as §2

[13] = test system: Clostridium perfringens 81; test: microbe, parasite or virus in culture; assay type: cell-based; conditions: Clostridium perfringens, 81, 24 h
M. gallisepticum = test: in vitro broth-dilution MIC, Mycoplasma; assay type: cell-based; conditions: Mycoplasmoides gallisepticum
From the text: (§3) Activity against Mycoplasma is another useful aspect of the antimicrobial activity of the deoxynarasin antibiotics. Mycoplasma species, also known as pleuropneumonia-like (PPLO) organisms, are pathogenic to man and various animals. Agents active against PPLO organisms are especially needed by the poultry industry. The minimal inhibitory concentrations (MIC) of 20-deoxy-epi-17-narasin (free acid) against illustrative Mycoplasma species, as determined by in vitro broth-dilution studies, are summarized in Table VI.

M. hyorhinis = test: in vitro broth-dilution MIC, Mycoplasma; assay type: cell-based; conditions: Mesomycoplasma hyorhinis
From the text: as §3

M. synoviae = test: in vitro broth-dilution MIC, Mycoplasma; assay type: cell-based; conditions: Mycoplasmopsis synoviae
From the text: as §3

herpesvirus = test: in vitro plaque suppression test; assay type: cell-based
From the text: (§4) The deoxynarasin antibiotics are also antiviral agents.

influenza A virus = test: in vitro plaque suppression test; assay type: cell-based
From the text: as §4

rhinovirus type 3 = test: in vitro plaque suppression test; assay type: cell-based; conditions: rhinovirus type 3, in vitro
From the text: as §4

vacinnia virus = test: in vitro plaque suppression test; assay type: cell-based
From the text: as §4

mice = test: acute toxicity, intraperitoneal, mice; assay type: in vivo; conditions: intraperitoneally to mice
Eimeria tenella [14] = test: in vitro anticoccidial activity; assay type: cell-based
From the text: Anticoccidial activity is an important property of the deoxynarasin antibiotics of this invention.

rumen flora = test: in vitro rumen volatile-fatty-acid (VFA) test; set-up: species or system ruminants
From the text: As discussed, efficiency of carbohydrate utilization in ruminants is increased by treatments which stimulate the animal's rumen flora to produce propionate compounds rather than acetate or butyrate compounds. The efficiency of feed use can be monitored by observing the production and concentration of propionate compounds in rumen fluid, using methods as described in U.S. Pat. No. 4,038,384.
Results of in vitro tests with 20-deoxynarasin (Na salt) and 20-deoxy-epi-17-narasin (free acid), showing the ratio of volatile-fatty-acid (VFA) concentrations in treated flasks to concentrations in control flasks, are shown in Table VIII.

solubility = assay type: physicochemical; conditions: for solubility in nonpolar organic solvents: nonpolar organic solvents such as hexane; for solubility in organic solvents: organic solvents (methanol, ethanol, dimethylformamide, dimethyl sulfoxide, ethyl acetate, chloroform, acetone, benzene)
From the text: The deoxynarasin antibiotic complex comprises 20-deoxynarasin and 20-deoxy-epi-17-narasin which are obtained from the fermentation as a mixture. 20-Deoxynarasin and 20-deoxy-epi-17-narasin are separated from the deoxynarasin complex and isolated as individual compounds as hereinafter described. The deoxynarasin complex also contains minor factors which are removed by the procedures described. The deoxynarasin antibiotic complex is soluble in most organic solvents, but is insoluble in water.
(§5) For example, 20-deoxynarasin acid (435.1 mg) was dissolved in methanol (40 ml) and allowed to stand at room temperature for four hours. The solution was then evaporated to dryness under vacuum; the residue was redissolved in dioxane and lyophilized to give 417.8 mg of 20-deoxy-epi-17-narasin acid.

[15] = target: cation transport ATPase in liver mitochondria; test: in vitro ATPase inhibition; assay type: biochemical
From the text: In yet another aspect, 20-deoxynarasin and its salts are active as an inhibitor of the enzyme ATPase. ATPase, an alkali-metal-sensitive enzyme found in cell membranes, is involved in the energy necessary for active transport. "Active transport" refers to the energy-requiring series of operations whereby intracellular and extracellular fluids maintain their compositions. Inhibitors of ATPase reduce the energy required for active transport. In vitro tests have shown that 20-deoxynarasin (Na salt) inhibits cation transport ATPase in liver mitochondria at a half effective concentration of 0.065 mcg/ml.

[16] = test system: isolated guinea-pig atria; test: isolated guinea-pig atria contractility; assay type: cell-based; conditions: Cavia porcellus; 10^-5 molar; percentage of maximal contractile tension elicited by norepinephrine challenge; n=4; read-out: mean (± standard error) increase in contractile tension
From the text: 20-Deoxynarasin and its salts are also potential cardiotonic agents. In tests using isolated guinea-pig atria, for example, 20-deoxynarasin increased cardiac contractility. Response to this test is expressed as a percentage of the maximal contractile tension that could be elicited by a challenge dose of norepinephrine (10^-4)M). 20-Deoxynarasin (Na salt), at a 10^-5 molar concentration, produced a mean (± standard error) increase in contractile tension of 43.8±1.4 (n=4) percent. For a more detailed description of this test, see U.S. Pat. No. 3,985,893.

Eimeria tenella [17] = test: feeding experiment in young chickens challenged with Eimeria tenella; assay type: in vivo; conditions: 100 ppm in the diet, chicks challenged with Eimeria tenella, Na salt
From the text: A feeding experiment in young chickens confirms that the deoxynarasin antibiotics have anticoccidial activity in vivo.

stability in alcohols = assay type: physicochemical; conditions: converts to 20-deoxy-epi-17-narasin free acid (methanol, room temperature, four hours)
Description: as §5

CCC(C(=O)O)C1OC(C(C)C(O)C(C)C(=O)C(CC)C2OC3(C=CCC4(CCC(C)(C5CCC(O)(CC)C(C)O5)O4)O3)C(C)CC2C)C(C)CC1C (stereo not drawn) [20-deoxy-epi-17-narasin]
zone of inhibition at 30 µg/disc (Diplococcus pneumoniae; 30 mcg/disc): 13 mm
zone of inhibition at 300 µg/disc (Diplococcus pneumoniae; 300 mcg/disc): 16 mm
zone of inhibition at 30 µg/disc ([1]; 30 mcg/disc): 13.8 mm
zone of inhibition at 300 µg/disc ([1]; 300 mcg/disc): 16.9 mm
zone of inhibition at 30 µg/disc ([2]; 30 mcg/disc): 15.4 mm
zone of inhibition at 300 µg/disc ([2]; 300 mcg/disc): 19.5 mm
zone of inhibition at 30 µg/disc ([3]; 30 mcg/disc): 17.2 mm
zone of inhibition at 300 µg/disc ([3]; 300 mcg/disc): 19 mm
zone of inhibition at 30 µg/disc ([4]; 30 mcg/disc): 10 mm
zone of inhibition at 300 µg/disc ([4]; 300 mcg/disc): 12 mm
zone of inhibition at 30 µg/disc ([5]; 30 mcg/disc): 14.6 mm
zone of inhibition at 300 µg/disc ([5]; 300 mcg/disc): 17 mm
MIC [6]: 8 µg/mL (≈ 10.7 µM)
MIC (Bacteroides fragilis 111): > 128 µg/mL
MIC [7]: 16 µg/mL (≈ 21.4 µM)
MIC [8]: 16 µg/mL (≈ 21.4 µM)
MIC [9]: 8 µg/mL (≈ 10.7 µM)
MIC (Peptococcus prevoti 1281): 4 µg/mL (≈ 5.34 µM)
MIC [10]: 4 µg/mL (≈ 5.34 µM)
MIC [11]: 4 µg/mL (≈ 5.34 µM)
MIC [12]: 2 µg/mL (≈ 2.67 µM)
MIC [13]: 16 µg/mL (≈ 21.4 µM)
MIC (M. gallisepticum): 25 µg/mL (≈ 33.4 µM)
MIC (M. hyorhinis): 50 µg/mL (≈ 66.8 µM)
MIC (M. synoviae): 50 µg/mL (≈ 66.8 µM)
antiviral activity (plaque suppression) (herpesvirus): active
antiviral activity (plaque suppression) (influenza A virus): active
antiviral activity (plaque suppression) (rhinovirus type 3): active
antiviral activity (plaque suppression) (vacinnia virus): active
acute toxicity LD50 (mice): 201 mg/kg
level at which active against Eimeria tenella (as low as) (Eimeria tenella [14]): 0.2 ppm
Ratio of Treated to Control, Molar % acetate (rumen flora; dose 2 mcg/ml): 0.9581
Ratio of Treated to Control, Molar % butyrate (rumen flora; dose 2 mcg/ml): 0.9414
Ratio of Treated to Control, Molar % propionate (rumen flora; dose 2 mcg/ml): 1.0858
Ratio of Treated to Control, Total VFA (rumen flora; dose 2 mcg/ml): 1.0717
Ratio of Treated to Control, Molar % acetate (rumen flora; dose 5 mcg/ml): 0.9237
Ratio of Treated to Control, Molar % butyrate (rumen flora; dose 5 mcg/ml): 0.8201
Ratio of Treated to Control, Molar % propionate (rumen flora; dose 5 mcg/ml): 1.1836
Ratio of Treated to Control, Total VFA (rumen flora; dose 5 mcg/ml): 1.0487
Ratio of Treated to Control, Molar % acetate (rumen flora; dose 10 mcg/ml): 0.9093
Ratio of Treated to Control, Molar % butyrate (rumen flora; dose 10 mcg/ml): 0.6560
Ratio of Treated to Control, Molar % propionate (rumen flora; dose 10 mcg/ml): 1.2665
Ratio of Treated to Control, Total VFA (rumen flora; dose 10 mcg/ml): 1.0325
solubility in nonpolar organic solvents (solubility): only slightly soluble
solubility in organic solvents (solubility): soluble
solubility in water (solubility): insoluble

CCC(C(=O)O)C1OC(C(C)C(O)C(C)C(=O)C(CC)C2OC3(C=CCC4(CCC(C)(C5CCC(O)(CC)C(C)O5)O4)O3)C(C)CC2C)C(C)CC1C (stereo not drawn) [20-deoxynarasin (Na salt)]
acute toxicity LD50 (mice): 5 mg/kg
minimal effective concentration (Eimeria tenella [14]; Eimeria tenella, read-out: level at which active against Eimeria tenella (as low as)): 0.2 µg/mL
half effective concentration, inhibition of cation transport ATPase [15]: 0.065 µg/mL
activation at 10 µM [16]: 43.8 ± 1.4%

CCC(C(=O)O)C1OC(C(C)C(O)C(C)C(=O)C(CC)C2OC3(C=CCC4(CCC(C)(C5CCC(O)(CC)C(C)O5)O4)O3)C(C)CC2C)C(C)CC1C (stereo not drawn) [20-deoxynarasin, 20-Deoxynarasin]
% Mortality (Eimeria tenella [17]): 0%
Weight Gain (Eimeria tenella [17]): 185 g
Lesion Score (Eimeria tenella [17]; maximum possible score = 4.00): 0.13
Ratio of Treated to Control, Molar % acetate (rumen flora; dose 0.1 mcg/ml): 0.9504
Ratio of Treated to Control, Molar % butyrate (rumen flora; dose 0.1 mcg/ml): 0.6870
Ratio of Treated to Control, Molar % propionate (rumen flora; dose 0.1 mcg/ml): 1.2148
Ratio of Treated to Control, Total VFA (rumen flora; dose 0.1 mcg/ml): 1.1892
Ratio of Treated to Control, Molar % acetate (rumen flora; dose 0.3 mcg/ml): 0.9084
Ratio of Treated to Control, Molar % butyrate (rumen flora; dose 0.3 mcg/ml): 0.4582
Ratio of Treated to Control, Molar % propionate (rumen flora; dose 0.3 mcg/ml): 1.3799
Ratio of Treated to Control, Total VFA (rumen flora; dose 0.3 mcg/ml): 1.1829
Ratio of Treated to Control, Molar % acetate (rumen flora; dose 1 mcg/ml): 0.8727
Ratio of Treated to Control, Molar % butyrate (rumen flora; dose 1 mcg/ml): 0.3942
Ratio of Treated to Control, Molar % propionate (rumen flora; dose 1 mcg/ml): 1.4597
Ratio of Treated to Control, Total VFA (rumen flora; dose 1 mcg/ml): 1.2096
solubility in nonpolar organic solvents (solubility): only slightly soluble
solubility in organic solvents (solubility): soluble
solubility in water (solubility): insoluble
stability in alcohols (stability in alcohols): unstable
